Source: patent US20100204129A1, “USE OF A PEPTIDE AS A THERAPEUTIC AGENT” (priority 2008, published 2010)

Key:
HepG2-2.2.15 cells = conditions: peptide 10 micrograms per ml, dye uptake assay, % cell control
HIV-1IIIB = assay: HIV-1 antiviral assay (CPE reduction, MTS); format: cell-based; conditions: peptide 10 micrograms per ml, 6 days post-infection
CEM-SS cells = assay: Cytotoxicity in HIV-1 assay (MTS cell viability); conditions: CEM-SS cells, cells plus peptide only; peptide 10 micrograms per ml; MTS
MRC-5 cells = conditions: human, 6 days
Description: For cytotoxicity testing, MRC-5 cells were seeded at 2,500 cells/well in 96 well plates using growth medium. […] The following day, peptide was added and tested in duplicates. After a 6 days incubation period, cell viability was measured using CellTiter 96 Solution (Promega). Plates were incubated for additional 4 hours at 37° C. Adhesive plate sealers were used in place of lids, the sealed plates were inverted several times to mix the soluble formazan product and the plate was read spectrophotometrically at 490/560 nm with a Molecular Devices Vmax plate reader.

HCMV strain AD169 = assay: HCMV plaque reduction assay in MRC-5 cells; conditions: HCMV in MRC-5 cells; peptide 10 micrograms per ml; 7-10 days

## Nc1ccn([C@@H]2CS[C@H](CO)O2)c(=O)n1 [3TC, Lamivudine, reference compound]
HepG2-2.2.15 cells
  % Cell viability: 95.8%

## Cc1cn([C@H]2C[C@H](N=[N+]=[N-])[C@@H](CO)O2)c(=O)[nH]c1=O [AZT, reference compound]
HIV-1IIIB
  % CPE reduction in HIV-1 infected CEM-SS cells: 99%
CEM-SS cells
  % Cell viability: 97%

## Nc1nc(O)c2ncn(COC(CO)CO)c2n1 [Ganciclovir, reference compound]
MRC-5 cells
  % Cell viability: 100%
HCMV strain AD169
  % plaque reduction: 100%

## CC(C)(C)NC(=O)[C@@H]1CN(Cc2cccnc2)CCN1C[C@@H](O)C[C@@H](Cc1ccccc1)C(=O)N[C@H]1c2ccccc2C[C@H]1O [Indinavir, indinavir]
HIV-1IIIB
  % CPE reduction in HIV-1 infected CEM-SS cells: 100%
